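Cells were grown in 96-well plates and exposed to each compound for 48 hours at five concentrations; endpoints were interpolated linearly between bracketing concentrations, or set to the highest concentration if not reached. GI50: concentration for 50% inhibition of growth. TGI marks complete inhibition of growth.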
Columns and labels:
Assay in all cases: growth of human tumour cells (NCI), 48 h
[1] = test system: 786-0 renal
[2] = test system: A549 NSCLC
[3] = test system: ACHN renal
[4] = test system: CAKI-1 renal
[5] = test system: COLO 205 colon
[6] = test system: DU-145 prostate
[7] = test system: EKVX NSCLC
[8] = test system: HCC-2998 colon
[9] = test system: HCT-116 colon
[10] = test system: HCT-15 colon
[11] = test system: HOP-62 NSCLC
[12] = test system: HOP-92 NSCLC
[13] = test system: HS 578T breast
[14] = test system: IGROV1 ovarian
[15] = test system: K-562 leukemia
[16] = test system: KM12 colon
[17] = test system: LOX IMVI melanoma
[18] = test system: M14 melanoma
[19] = test system: MCF7 breast
[20] = test system: MDA-MB-231 breast
[21] = test system: MDA-MB-435
[22] = test system: NCI-H226 lung
[23] = test system: NCI-H23 lung
[24] = test system: NCI-H460 lung
[25] = test system: NCI-H522 lung
[26] = test system: NCI/ADR-RES ovarian
[27] = test system: OVCAR-4 ovarian
[28] = test system: OVCAR-5 ovarian
[29] = test system: OVCAR-8 ovarian
[30] = test system: PC-3 prostate
[31] = test system: RPMI-8226 leukemia
[32] = test system: RXF 393 renal
[33] = test system: SF-268 CNS
[34] = test system: SF-295 CNS
[35] = test system: SF-539 CNS
[36] = test system: SK-MEL-2 melanoma
[37] = test system: SK-MEL-28 melanoma
[38] = test system: SK-MEL-5 melanoma
[39] = test system: SK-OV-3 ovarian
[40] = test system: SN12C renal
[41] = test system: SNB-19 CNS
[42] = test system: SNB-75 CNS
[43] = test system: SR leukemia
[44] = test system: SW-620 colon
[45] = test system: T-47D breast
[46] = test system: TK-10 renal
[47] = test system: U251 CNS
[48] = test system: UACC-257 melanoma
[49] = test system: UACC-62 melanoma
[50] = test system: UO-31 renal

With COc1cc2cnc3c(c2c(OC)c1OC)Cc1cc2c(cc1-3)OCO2 the GI50 [1] was 3.23 µM, the TGI [1] was > 82.5 µM and the GI50 [2] was 2.64 µM. For the same compound, the TGI [2] was > 100 µM, the GI50 [3] was 0.243 µM and the TGI [3] was > 29.1 µM. It also gave a GI50 [4] of 0.256 µM, a TGI [4] of 1.76 µM and a GI50 [5] of 0.743 µM. For the same compound, the TGI [5] was > 100 µM, the GI50 [6] was > 36.1 µM and the TGI [6] was > 100 µM. For the same compound, the GI50 [7] was 7.54 µM, the TGI [7] was > 100 µM and the GI50 [8] was > 100 µM. The TGI [8] was > 100 µM, the GI50 [9] was 0.0694 µM and the TGI [9] was > 100 µM. The GI50 [10] was 0.102 µM, the TGI [10] was > 32.3 µM and the GI50 [11] was 0.234 µM. The TGI [11] was 10.9 µM, the TGI [12] was > 28.5 µM and the GI50 [13] was 2.38 µM. For the same compound, the TGI [13] was > 50.7 µM, the GI50 [14] was 2.86 µM and the TGI [14] was > 100 µM. The GI50 [15] was 0.156 µM, the TGI [15] was > 87.9 µM and the GI50 [16] was 0.255 µM. The TGI [16] was 0.874 µM, the GI50 [17] was 0.0789 µM and the TGI [17] was > 100 µM. For the same compound, the GI50 [18] was 0.55 µM, the TGI [18] was > 55.1 µM and the GI50 [19] was 1.32 µM. For the same compound, the TGI [19] was > 24.8 µM, the GI50 [20] was 0.71 µM and the TGI [20] was > 27.8 µM. The GI50 [21] was 0.207 µM, the TGI [21] was 0.446 µM and the GI50 [22] was 88.3 µM. For the same compound, the TGI [22] was > 100 µM, the GI50 [23] was 2.3 µM and the TGI [23] was > 100 µM. The GI50 [24] was 1.39 µM, the TGI [24] was > 100 µM and the GI50 [25] was 0.408 µM. The TGI [25] was 3.46 µM, the GI50 [26] was 10.8 µM and the TGI [26] was > 74.8 µM. For the same compound, the GI50 [27] was > 100 µM, the TGI [27] was > 100 µM and the GI50 [28] was > 40.8 µM. For the same compound, the TGI [28] was > 100 µM, the TGI [29] was > 29.4 µM and the GI50 [30] was 4.49 µM. For the same compound, the TGI [30] was > 100 µM, the GI50 [31] was 0.559 µM and the TGI [31] was > 100 µM. It also gave a GI50 [32] of 10.9 µM, a TGI [32] of 47.9 µM and a GI50 [33] of 2.74 µM. The TGI [33] was > 100 µM, the GI50 [34] was 0.591 µM and the TGI [34] was > 32.8 µM. It also gave a GI50 [35] of 0.869 µM, a TGI [35] of 12 µM and a GI50 [36] of 1.41 µM. The TGI [36] was > 65.1 µM, the GI50 [37] was 42.6 µM and the TGI [37] was > 100 µM. It also gave a GI50 [38] of 0.682 µM, a TGI [38] of 13.3 µM and a GI50 [39] of 69.3 µM. For the same compound, the TGI [39] was > 100 µM, the GI50 [40] was 0.602 µM and the TGI [40] was > 100 µM. The GI50 [41] was > 100 µM, the TGI [41] was > 100 µM and the GI50 [42] was > 100 µM. The TGI [42] was > 100 µM, the GI50 [43] was 0.0491 µM and the TGI [43] was 0.305 µM. For the same compound, the GI50 [44] was 1.35 µM, the TGI [44] was > 100 µM and the GI50 [45] was > 100 µM. For the same compound, the TGI [45] was > 100 µM, the GI50 [46] was 0.752 µM and the TGI [46] was 2.9 µM. The GI50 [47] was 0.31 µM, the TGI [47] was > 21.8 µM and the GI50 [48] was 0.99 µM. The TGI [48] was > 100 µM, the GI50 [49] was 0.204 µM and the TGI [49] was 11.2 µM. The GI50 [50] was 10.9 µM and the TGI [50] was > 100 µM.

From PubChem BioAssay (NCI)
